Earlier results, collected in patent US10980718B2, “Personal care compositions comprising poorly soluble compounds” (Conopco, Inc., priority 2016, dated 2021).

## N[C@@H](CSSC[C@H](N)C(=O)O)C(=O)O [cystine]
Aqueous solutions with pH less than 2 or pH above 8
  solubility of cystine in aqueous solutions by pH: more soluble
Room temperature and neutral pH
  natural solubility limit of cystine: 0.01 wt %
